Results from US20160002204A1 (Board of Regents, The University of Texas System, priority 2014, published 2016).

What was measured:
[1] = target: T1, GLS1 (purified recombinant human GAC) (Homo sapiens, UniProt O94925); assay: GLS1 enzymatic activity assay (dual-coupled, Amplex UltraRed/resorufin); format: biochemical
T1 sequence (O94925 55-598 isoform O94925-3 limits assumed): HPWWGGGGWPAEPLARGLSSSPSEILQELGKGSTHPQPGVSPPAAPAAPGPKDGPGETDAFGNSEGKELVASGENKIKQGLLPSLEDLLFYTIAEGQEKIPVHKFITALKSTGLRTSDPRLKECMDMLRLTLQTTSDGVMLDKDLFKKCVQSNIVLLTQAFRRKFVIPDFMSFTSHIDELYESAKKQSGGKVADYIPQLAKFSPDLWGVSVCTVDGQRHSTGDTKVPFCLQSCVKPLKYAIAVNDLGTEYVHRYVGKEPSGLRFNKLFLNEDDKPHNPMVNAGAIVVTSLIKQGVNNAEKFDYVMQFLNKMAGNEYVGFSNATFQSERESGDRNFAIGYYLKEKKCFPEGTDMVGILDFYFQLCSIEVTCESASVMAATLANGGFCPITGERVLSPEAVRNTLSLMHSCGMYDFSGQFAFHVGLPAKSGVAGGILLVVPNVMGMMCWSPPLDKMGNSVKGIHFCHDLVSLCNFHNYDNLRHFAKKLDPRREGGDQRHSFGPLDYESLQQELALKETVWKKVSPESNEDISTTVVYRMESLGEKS
Summary of the method: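 GAC activity measured by coupling glutamate to glutamate oxidase and HRP, generating resorufin from Amplex UltraRed. Enzyme (2 nM) preincubated with 50 mM potassium phosphate 10 min at room temperature, then inhibitor 10 min; 1 mM glutamine substrate, 1% DMSO. Fluorescence 530/590 nm, kinetic or 20-min endpoint; IC50 from four-parameter logistic fit.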

A549 cells = assay: A549 proliferation (viability) assay, Cell Titer Fluor, 72 hours; format: cell-based; settings: Homo sapiens
Summary of the method: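 A549 cells seeded at 1000 cells/well, left 24 h, then exposed to compound for 72 h at 37 °C, 5% CO2, final DMSO 0.5% (v/v). Viability read by Cell Titer Fluor fluorescence; EC50 from four-parameter logistic fit.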

Row | Compound | IC50 [1] [nM] | EC50 (A549 cells) [nM]
1 | O=C(CN1CCCCC1)Nc1ccn(CCC(F)Cn2cc(C(=O)NCc3cc(C(F)(F)F)ccn3)nn2)c(=O)c1F (centres unmarked) [Example 344, 1-(2-fluoro-4-{3-fluoro-2-oxo-4-[2-(piperidin-1-yl)acetamido]-1,2-dihydropyridin-1-yl}butyl)-N-{[4-(trifluoromethyl)pyridin-2-yl]methyl}-1H-1,2,3-triazole-4-carboxamide] | 100 to 500 | < 100
2 | CC(C(=O)Nc1ccn(CCC(F)Cn2cc(C(=O)NCc3cc(C(F)(F)F)ccn3)nn2)c(=O)c1F)N1CCCCC1 (centres unmarked) [Example 345, 1-(2-fluoro-4-{3-fluoro-2-oxo-4-[2-(piperidin-1-yl)propanamido]-1,2-dihydropyridin-1-yl}butyl)-N-{[4-(trifluoromethyl)pyridin-2-yl]methyl}-1H-1,2,3-triazole-4-carboxamide] | 100 to 500 | < 100
3 | CCOC(=O)C(=O)Nc1ccn(CCC(F)Cn2cc(C(=O)NCc3cccc(OC(F)(F)F)c3)nn2)c(=O)c1F (centres unmarked) [Example 347, ethyl [(3-fluoro-1-{3-fluoro-4-[4-({[3-(trifluoromethoxy)phenyl]methyl}carbamoyl)-1H-1,2,3-triazol-1-yl]butyl}-2-oxo-1,2-dihydropyridin-4-yl)carbamoyl]formate] | 100 to 500 | > 5000
4 | CC(C(=O)Nc1ccn(CCC(F)Cn2cc(C(=O)NCc3cncc(C(F)(F)F)c3)nn2)c(=O)c1F)N1CCCCC1 (centres unmarked) [Example 352, 1-(2-fluoro-4-{3-fluoro-2-oxo-4-[2-(piperidin-1-yl)propanamido]-1,2-dihydropyridin-1-yl}butyl)-N-{[5-(trifluoromethyl)pyridin-3-yl]methyl}-1H-1,2,3-triazole-4-carboxamide] | < 100 | < 100
5 | O=C(Nc1ccn(CCC(F)Cn2cc(C(=O)NCc3cccc(OC(F)(F)F)c3)nn2)c(=O)c1F)c1ccccc1 (centres unmarked) [Example 353, 1-[4-(4-benzamido-3-fluoro-2-oxo-1,2-dihydropyridin-1-yl)-2-fluorobutyl]-N-{[3-(trifluoromethoxy)phenyl]methyl}-1H-1,2,3-triazole-4-carboxamide] | < 100 | 100 to 500
6 | CC(C)OC(=O)Nc1ccn(CCC(F)Cn2cc(C(=O)NCc3cccc(OC(F)(F)F)c3)nn2)c(=O)c1F (centres unmarked) [Example 354] | < 100 | < 100
7 | O=C(CC1CCCC1)Nc1ccn(CCC(F)Cn2cc(C(=O)NCc3cccc(OC(F)(F)F)c3)nn2)c(=O)c1F (centres unmarked) [Example 355, 1-{4-[4-(2-cyclopentylacetamido)-3-fluoro-2-oxo-1,2-dihydropyridin-1-yl]-2-fluorobutyl}-N-{[3-(trifluoromethoxy)phenyl]methyl}-1H-1,2,3-triazole-4-carboxamide] | < 100 | < 100
8 | O=C(CC1CCC1)Nc1ccn(CCC(F)Cn2cc(C(=O)NCc3ncccc3F)nn2)c(=O)c1F (centres unmarked) [Example 356, 1-{4-[4-(2-cyclobutylacetamido)-3-fluoro-2-oxo-1,2-dihydropyridin-1-yl]-2-fluorobutyl}-N-[(3-fluoropyridin-2-yl)methyl]-1H-1,2,3-triazole-4-carboxamide] | 100 to 500 | 100 to 500
9 | O=C(CC1CCC1)Nc1ccn(CCC(F)Cn2cc(C(=O)NCc3ccc(C(F)(F)F)nc3)nn2)c(=O)c1F (centres unmarked) [Example 357, 1-{4-[4-(2-cyclobutylacetamido)-3-fluoro-2-oxo-1,2-dihydropyridin-1-yl]-2-fluorobutyl}-N-{[6-(trifluoromethyl)pyridin-3-yl]methyl}-1H-1,2,3-triazole-4-carboxamide] | < 100 | 100 to 500
10 | O=C(Nc1ccn(CCC(F)Cn2cc(C(=O)NCc3cccc(OC(F)(F)F)c3)nn2)c(=O)c1F)C(=O)N1CCCCC1 (centres unmarked) [Example 358, 1-(2-fluoro-4-(3-fluoro-2-oxo-4-(2-oxo-2-(piperidin-1-yl)acetamido)pyridin-1(2H)-yl)butyl)-N-(3-(trifluoromethoxy)benzyl)-1H-1,2,3-triazole-4-carboxamide] | < 100 | < 100
11 | O=C(O)C(=O)Nc1ccn(CCC(F)Cn2cc(C(=O)NCc3cccc(OC(F)(F)F)c3)nn2)c(=O)c1F (centres unmarked) [Example 359, [(3-fluoro-1-{3-fluoro-4-[4-({[3-(trifluoromethoxy)phenyl]methyl}carbamoyl)-1H-1,2,3-triazol-1-yl]butyl}-2-oxo-1,2-dihydropyridin-4-yl)carbamoyl]formic acid] | 100 to 500 | 500 to 5000
12 | O=C(CC1CCCC1)Nc1ccn(CCC(F)Cn2cc(C(=O)NCc3cncc(C(F)(F)F)c3)nn2)c(=O)c1F (centres unmarked) [Example 360, 1-{4-[4-(2-cyclopentylacetamido)-3-fluoro-2-oxo-1,2-dihydropyridin-1-yl]-2-fluorobutyl}-N-{[5-(trifluoromethyl)pyridin-3-yl]methyl}-1H-1,2,3-triazole-4-carboxamide] | < 100 | < 100
13 | O=C(Cc1ccccc1F)Nc1ccn(CCC(F)Cn2cc(C(=O)NCc3cncc(C(F)(F)F)c3)nn2)c(=O)c1F (centres unmarked) [Example 361, 1-(2-fluoro-4-{3-fluoro-4-[2-(2-fluorophenyl)acetamido]-2-oxo-1,2-dihydropyridin-1-yl}butyl)-N-{[5-(trifluoromethyl)pyridin-3-yl]methyl}-1H-1,2,3-triazole-4-carboxamide] | < 100 | < 100
14 | O=C(NCc1cncc(C(F)(F)F)c1)c1cn(CC(F)CCn2ccc(NC(=O)C(F)c3ccccc3)c(F)c2=O)nn1 (centres unmarked) [Example 362, 1-{2-fluoro-4-[3-fluoro-4-(2-fluoro-2-phenylacetamido)-2-oxo-1,2-dihydropyridin-1-yl]butyl}-N-{[5-(trifluoromethyl)pyridin-3-yl]methyl}-1H-1,2,3-triazole-4-carboxamide] | < 100 | < 100
15 | CCOC(=O)N1CCC(CC(=O)Nc2ccn(CCC(F)Cn3cc(C(=O)NCc4cncc(C(F)(F)F)c4)nn3)c(=O)c2F)CC1 (centres unmarked) [Example 363, ethyl 4-{[(3-fluoro-1-{3-fluoro-4-[4-({[5-(trifluoromethyl)pyridin-3-yl]methyl}carbamoyl)-1H-1,2,3-triazol-1-yl]butyl}-2-oxo-1,2-dihydropyridin-4-yl)carbamoyl]methyl}piperidine-1-carboxylate] | < 100 | < 100

Other lines, results leading:

Row | IC50 [1] [nM] | EC50 (A549 cells) [nM] | Compound
16 | < 100 | < 100 | O=C(NCc1cccc(OC(F)(F)F)c1)c1cn(CC(F)CCn2ccc(NC(=O)C3CCCC3)c(F)c2=O)nn1 (centres unmarked) [Example 342, 1-[4-(4-cyclopentaneamido-3-fluoro-2-oxo-1,2-dihydropyridin-1-yl)-2-fluorobutyl]-N-{[3-(trifluoromethoxy)phenyl]methyl}-1H-1,2,3-triazole-4-carboxamide]
17 | < 100 | < 100 | C[C@H](C(=O)Nc1ccn(CCC(F)Cn2cc(C(=O)NCc3cc(C(F)(F)F)ccn3)nn2)c(=O)c1F)c1ccccc1 (stereo partly drawn) [Example 343, 1-(2-fluoro-4-{3-fluoro-2-oxo-4-[(2S) 2-phenylpropanamido]-1,2-dihydropyridin-1-yl}butyl)-N-{[4-(trifluoromethyl)pyridin-2-yl]methyl}-1H-1,2,3-triazole-4-carboxamide]
18 | < 100 | < 100 | O=C(Nc1ccn(CCC(F)Cn2cc(C(=O)NCc3cccc(OC(F)(F)F)c3)nn2)c(=O)c1F)OC1CCCCC1 (centres unmarked) [Example 346, cyclohexyl N-(3-fluoro-1-{3-fluoro-4-[4-({[3-(trifluoro-methoxy)phenyl]methyl}carbamoyl)-1H-1,2,3-triazol-1-yl]butyl}-2-oxo-1,2-dihydropyridin-4-yl)carbamate]
19 | < 100 | < 100 | O=C(Cc1ccccc1)Nc1ccn(CCC(F)Cn2cc(C(=O)NCc3cncc(C(F)(F)F)c3)nn2)c(=O)c1F (centres unmarked) [Example 348, 1-{2-fluoro-4-[3-fluoro-2-oxo-4-(2-phenylacetamido)-1,2-dihydropyridin-1-yl]butyl}-N-{[5-(trifluoromethyl)pyridin-3-yl]methyl}-1H-1,2,3-triazole-4-carboxamide]
20 | < 100 | < 100 | C[C@H](C(=O)Nc1ccn(CCC(F)Cn2cc(C(=O)NCc3cncc(C(F)(F)F)c3)nn2)c(=O)c1F)c1ccccc1 (some centres unmarked) [Example 349]
21 | < 100 | < 100 | O=C(CC1CCC1)Nc1ccn(CCC(F)Cn2cc(C(=O)NCc3cncc(C(F)(F)F)c3)nn2)c(=O)c1F (centres unmarked) [Example 350, 1-{4-[4-(2-cyclobutylacetamido)-3-fluoro-2-oxo-1,2-dihydropyridin-1-yl]-2-fluorobutyl}-N-{[5-(trifluoromethyl)pyridin-3-yl]methyl}-1H-1,2,3-triazole-4-carboxamide]
22 | < 100 | < 100 | O=C(CN1CCCCC1)Nc1ccn(CCC(F)Cn2cc(C(=O)NCc3cncc(C(F)(F)F)c3)nn2)c(=O)c1F (centres unmarked) [Example 351, 1-(2-fluoro-4-{3-fluoro-2-oxo-4-[2-(piperidin-1-yl)acetamido]-1,2-dihydropyridin-1-yl}butyl)-N-{[5-(trifluoromethyl)pyridin-3-yl]methyl}-1H-1,2,3-triazole-4-carboxamide]
